The target of assay [1] is STE20/SPS1-related proline-alanine-rich protein kinase (Homo sapiens) (UniProt Q9UEW8). The assay is described as follows: Inhibition of human STK39 assessed as residual activity at 1 uM using RBER-CDC25tide as substrate in presence of 33P-ATP by ProQinase assay relative to control.
Assay [2] concerns the target Serine/threonine-protein kinase Nek3 (Homo sapiens) (UniProt P51956). The assay is described as follows: Inhibition of human NEK3 assessed as residual activity at 1 uM using RBER-CHKtide as substrate in presence of 33P-ATP by ProQinase assay relative to control.
The test system of assay [3] is Tyrosine-protein kinase ABL1 (Homo sapiens), P00519 [Q252H]. The assay is described as follows: Inhibition of ABL1 Q252H mutant (unknown origin) assessed as remaining activity at 1 uM by Kinome scan method relative to control.
The target in assay [4] is Serine/threonine-protein kinase VRK1 (Homo sapiens) (UniProt Q99986). The assay is described as follows: Inhibition of human VRK1 assessed as residual activity at 1 uM using RBER-CHKtide as substrate in presence of 33P-ATP by ProQinase assay relative to control.
In assay [5] the target is CDK2/Cyclin A2 (Homo sapiens) (UniProt P24941+P20248). Kind of assay: Inhibition of human CDK2/CycA2 assessed as residual activity at 1 uM using RBER-CHKtide as substrate in presence of 33P-ATP by ProQinase assay relative to control. It is filed as protein-complex assay.
Assay [6] deals with Homeodomain-interacting protein kinase 2 (Homo sapiens) (UniProt Q9H2X6). Kind of assay: Inhibition of human HIPK2 assessed as residual activity at 1 uM using RBER-CHKtide as substrate in presence of 33P-ATP by ProQinase assay relative to control.
The target of assay [7] is T1, Muscle, skeletal receptor tyrosine-protein kinase (Homo sapiens) (UniProt O15146).
T1 sequence (whole entry): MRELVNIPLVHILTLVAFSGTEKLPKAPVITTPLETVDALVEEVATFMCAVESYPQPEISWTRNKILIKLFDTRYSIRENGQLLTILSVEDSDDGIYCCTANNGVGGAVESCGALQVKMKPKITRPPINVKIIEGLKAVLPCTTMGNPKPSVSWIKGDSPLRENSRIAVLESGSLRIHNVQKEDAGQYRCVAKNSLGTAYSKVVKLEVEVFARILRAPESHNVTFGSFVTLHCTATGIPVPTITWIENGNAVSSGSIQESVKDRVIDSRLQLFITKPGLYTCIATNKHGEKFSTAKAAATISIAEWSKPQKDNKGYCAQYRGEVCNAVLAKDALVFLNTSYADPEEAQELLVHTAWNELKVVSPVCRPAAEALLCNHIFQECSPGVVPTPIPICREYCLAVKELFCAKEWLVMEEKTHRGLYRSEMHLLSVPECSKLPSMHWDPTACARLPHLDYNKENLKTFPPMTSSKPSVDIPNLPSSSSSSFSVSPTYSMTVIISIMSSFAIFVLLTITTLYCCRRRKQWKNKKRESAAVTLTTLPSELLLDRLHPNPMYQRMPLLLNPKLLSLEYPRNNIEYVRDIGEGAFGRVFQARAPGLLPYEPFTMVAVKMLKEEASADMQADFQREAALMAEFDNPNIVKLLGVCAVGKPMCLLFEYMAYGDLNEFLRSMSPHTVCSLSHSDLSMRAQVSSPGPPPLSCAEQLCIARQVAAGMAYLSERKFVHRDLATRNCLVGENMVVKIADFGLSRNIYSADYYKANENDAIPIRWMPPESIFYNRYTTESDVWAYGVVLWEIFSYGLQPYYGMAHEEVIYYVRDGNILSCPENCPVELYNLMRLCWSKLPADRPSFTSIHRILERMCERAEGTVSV
Kind of assay: Inhibition of human MUSK assessed as residual activity at 1 uM using Poly(Ala,Glu,Lys,Tyr)6:2:5:1 as substrate in presence of 33P-ATP by ProQinase assay relative to control.

Assay [8] can be described thus: Anti-inflammatory activity against human derived medium respond PBMC cells assessed as inhibition in stimulated IL-4 cytokine release incubated for 2 hrs in the presence of LPS/SEB/aCD28 by Luminex based sandwich immunoassay. It is filed as functional, cell-based.
Assay [9] addresses Dual specificity protein kinase TTK (Homo sapiens) (UniProt P33981). The assay is described as follows: Inhibition of human TTK assessed as residual activity at 1 uM using RBER-CHKtide as substrate in presence of 33P-ATP by ProQinase assay relative to control.
In assay [10] the test system is Epidermal growth factor receptor (Homo sapiens), P00533 [G719C]. Kind of assay: Inhibition of human EGFR G719C mutant assessed as residual activity at 1 uM using PolyEY as substrate in presence of 33P-ATP by ProQinase assay relative to control.
The subject of assay [11] is Hepatocyte growth factor receptor (Homo sapiens), P08581 [Y1235D]. The assay is described as follows: Inhibition of human MET Y1235D mutant assessed as residual activity at 1 uM using PolyEY as substrate in presence of 33P-ATP by ProQinase assay relative to control.
Assay [12] has as its target Receptor tyrosine-protein kinase erbB-2 (Homo sapiens) (UniProt P04626). The assay is described as follows: Inhibition of ERBB2 (unknown origin) assessed as remaining activity at 1 uM by Kinome scan method relative to control.
In assay [13] the target is Tyrosine-protein kinase JAK1 (Homo sapiens) (UniProt P23458). Kind of assay: Inhibition of human JAK1 assessed as residual activity at 1 uM using RBER-IRStide as substrate in presence of 33P-ATP by ProQinase assay relative to control.
Assay [14] addresses Serine/threonine-protein kinase MRCK alpha (Homo sapiens) (UniProt Q5VT25). The assay is described as follows: Inhibition of human CDC42BPA assessed as residual activity at 1 uM using RB-S6P as substrate in presence of 33P-ATP by ProQinase assay relative to control.
Assay [15] has as its target Calcium/calmodulin-dependent protein kinase kinase 2 (Homo sapiens) (UniProt Q96RR4). Kind of assay: Inhibition of human CAMKK2 assessed as residual activity at 1 uM using RBER-GSK3 as substrate in presence of 33P-ATP by ProQinase assay relative to control.
In assay [16] the test system is Receptor-type tyrosine-protein kinase FLT3 (Homo sapiens), P36888 [D835Y]. Kind of assay: Inhibition of human […] mutant assessed as residual activity at 1 uM using Poly(Ala,Glu,Lys,Tyr)6:2:5:1 as substrate in presence of 33P-ATP by ProQinase assay relative to control.
The subject of assay [17] is Epidermal growth factor receptor (Homo sapiens), P00533 [L858R,T790M]. The assay is described as follows: Inhibition of human EGFR T790M/L858R mutant assessed as residual activity at 1 uM using PolyEY as substrate in presence of 33P-ATP by ProQinase assay relative to control.
The target of assay [18] is Cyclin-dependent kinase 7 (Homo sapiens) (UniProt P50613). Kind of assay: Inhibition of CDK7 (unknown origin) assessed as remaining activity at 1 uM by Kinome scan method relative to control.
Assay [19] has as its system Phosphatidylinositol 4,5-bisphosphate 3-kinase catalytic subunit alpha isoform (Homo sapiens), P42336 [E545A]. Kind of assay: Inhibition of PIK3CA E545A mutant (unknown origin) assessed as remaining activity at 1 uM by Kinome scan method relative to control.

Phosphatidylinositol 4,5-bisphosphate 3-kinase catalytic subunit alpha isoform (Homo sapiens), P42336 [E545A], sequence (P42336 whole entry E545A, canonical isoform): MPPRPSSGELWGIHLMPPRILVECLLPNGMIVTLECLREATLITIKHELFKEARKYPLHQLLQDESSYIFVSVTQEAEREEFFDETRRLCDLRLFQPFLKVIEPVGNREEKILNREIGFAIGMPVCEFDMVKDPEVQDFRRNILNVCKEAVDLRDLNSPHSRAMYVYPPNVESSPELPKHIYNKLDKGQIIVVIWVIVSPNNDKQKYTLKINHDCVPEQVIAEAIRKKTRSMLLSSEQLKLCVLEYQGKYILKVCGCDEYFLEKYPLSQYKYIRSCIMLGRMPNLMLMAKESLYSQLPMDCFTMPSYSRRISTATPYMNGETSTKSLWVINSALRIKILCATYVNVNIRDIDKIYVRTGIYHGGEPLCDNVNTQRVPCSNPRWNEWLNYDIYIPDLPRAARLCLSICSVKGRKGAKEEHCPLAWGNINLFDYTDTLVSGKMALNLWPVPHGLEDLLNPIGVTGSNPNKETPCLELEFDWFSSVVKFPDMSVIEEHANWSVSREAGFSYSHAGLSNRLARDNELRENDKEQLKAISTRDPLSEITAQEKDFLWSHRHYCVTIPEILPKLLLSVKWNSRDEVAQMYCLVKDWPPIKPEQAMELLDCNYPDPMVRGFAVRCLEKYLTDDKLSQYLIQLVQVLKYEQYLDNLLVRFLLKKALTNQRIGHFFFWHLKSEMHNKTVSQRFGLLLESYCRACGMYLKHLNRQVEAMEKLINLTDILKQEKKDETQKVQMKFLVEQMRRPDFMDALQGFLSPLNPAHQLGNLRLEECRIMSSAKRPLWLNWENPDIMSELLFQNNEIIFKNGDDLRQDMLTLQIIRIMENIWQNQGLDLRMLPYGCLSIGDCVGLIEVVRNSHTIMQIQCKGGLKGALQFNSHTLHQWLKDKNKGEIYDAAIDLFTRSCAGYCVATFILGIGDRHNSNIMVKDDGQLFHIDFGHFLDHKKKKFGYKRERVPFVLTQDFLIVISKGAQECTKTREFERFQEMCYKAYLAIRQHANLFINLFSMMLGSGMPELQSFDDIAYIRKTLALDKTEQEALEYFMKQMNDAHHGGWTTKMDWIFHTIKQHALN
Cyclin-dependent kinase 7 (Homo sapiens), sequence (P50613 whole entry, canonical isoform): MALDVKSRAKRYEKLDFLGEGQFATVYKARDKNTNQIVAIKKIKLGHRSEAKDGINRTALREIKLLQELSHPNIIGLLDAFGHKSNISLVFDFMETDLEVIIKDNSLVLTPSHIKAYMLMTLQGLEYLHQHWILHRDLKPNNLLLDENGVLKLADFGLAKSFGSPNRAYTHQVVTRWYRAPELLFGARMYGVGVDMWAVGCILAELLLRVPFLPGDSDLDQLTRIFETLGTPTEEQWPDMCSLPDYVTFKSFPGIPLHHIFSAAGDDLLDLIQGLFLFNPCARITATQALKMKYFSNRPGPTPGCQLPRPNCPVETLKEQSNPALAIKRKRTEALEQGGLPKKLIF
Tyrosine-protein kinase JAK1 (Homo sapiens), sequence (P23458 whole entry): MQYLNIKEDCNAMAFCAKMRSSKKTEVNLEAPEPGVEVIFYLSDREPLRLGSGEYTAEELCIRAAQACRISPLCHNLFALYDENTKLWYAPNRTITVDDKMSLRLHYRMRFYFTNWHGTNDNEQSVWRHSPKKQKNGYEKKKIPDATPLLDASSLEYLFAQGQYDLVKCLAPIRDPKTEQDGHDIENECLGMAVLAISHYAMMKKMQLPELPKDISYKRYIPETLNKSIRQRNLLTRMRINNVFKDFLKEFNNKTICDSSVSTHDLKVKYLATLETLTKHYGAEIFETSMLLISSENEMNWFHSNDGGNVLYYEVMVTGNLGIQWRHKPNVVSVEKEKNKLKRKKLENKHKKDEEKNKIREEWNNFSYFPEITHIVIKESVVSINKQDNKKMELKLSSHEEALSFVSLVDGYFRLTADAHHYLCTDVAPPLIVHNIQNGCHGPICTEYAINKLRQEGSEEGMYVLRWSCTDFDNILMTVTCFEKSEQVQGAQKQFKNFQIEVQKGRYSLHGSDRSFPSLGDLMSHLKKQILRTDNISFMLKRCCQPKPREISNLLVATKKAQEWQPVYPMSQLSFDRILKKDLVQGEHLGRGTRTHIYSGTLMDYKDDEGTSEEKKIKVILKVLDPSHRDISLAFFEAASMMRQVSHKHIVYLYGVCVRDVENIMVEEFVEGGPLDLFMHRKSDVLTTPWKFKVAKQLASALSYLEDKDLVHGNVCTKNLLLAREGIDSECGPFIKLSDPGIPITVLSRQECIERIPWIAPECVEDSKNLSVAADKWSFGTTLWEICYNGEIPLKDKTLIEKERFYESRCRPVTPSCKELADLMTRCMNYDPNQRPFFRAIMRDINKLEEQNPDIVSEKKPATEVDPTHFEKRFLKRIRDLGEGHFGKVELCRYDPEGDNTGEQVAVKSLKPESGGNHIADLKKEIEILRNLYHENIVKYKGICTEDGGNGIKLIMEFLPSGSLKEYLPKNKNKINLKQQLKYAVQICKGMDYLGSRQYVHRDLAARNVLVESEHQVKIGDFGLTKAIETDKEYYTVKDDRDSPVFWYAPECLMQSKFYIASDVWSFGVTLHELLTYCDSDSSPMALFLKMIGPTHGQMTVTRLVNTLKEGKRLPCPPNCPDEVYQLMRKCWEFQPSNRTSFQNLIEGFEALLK
Serine/threonine-protein kinase MRCK alpha (Homo sapiens), sequence (Q5VT25 whole entry): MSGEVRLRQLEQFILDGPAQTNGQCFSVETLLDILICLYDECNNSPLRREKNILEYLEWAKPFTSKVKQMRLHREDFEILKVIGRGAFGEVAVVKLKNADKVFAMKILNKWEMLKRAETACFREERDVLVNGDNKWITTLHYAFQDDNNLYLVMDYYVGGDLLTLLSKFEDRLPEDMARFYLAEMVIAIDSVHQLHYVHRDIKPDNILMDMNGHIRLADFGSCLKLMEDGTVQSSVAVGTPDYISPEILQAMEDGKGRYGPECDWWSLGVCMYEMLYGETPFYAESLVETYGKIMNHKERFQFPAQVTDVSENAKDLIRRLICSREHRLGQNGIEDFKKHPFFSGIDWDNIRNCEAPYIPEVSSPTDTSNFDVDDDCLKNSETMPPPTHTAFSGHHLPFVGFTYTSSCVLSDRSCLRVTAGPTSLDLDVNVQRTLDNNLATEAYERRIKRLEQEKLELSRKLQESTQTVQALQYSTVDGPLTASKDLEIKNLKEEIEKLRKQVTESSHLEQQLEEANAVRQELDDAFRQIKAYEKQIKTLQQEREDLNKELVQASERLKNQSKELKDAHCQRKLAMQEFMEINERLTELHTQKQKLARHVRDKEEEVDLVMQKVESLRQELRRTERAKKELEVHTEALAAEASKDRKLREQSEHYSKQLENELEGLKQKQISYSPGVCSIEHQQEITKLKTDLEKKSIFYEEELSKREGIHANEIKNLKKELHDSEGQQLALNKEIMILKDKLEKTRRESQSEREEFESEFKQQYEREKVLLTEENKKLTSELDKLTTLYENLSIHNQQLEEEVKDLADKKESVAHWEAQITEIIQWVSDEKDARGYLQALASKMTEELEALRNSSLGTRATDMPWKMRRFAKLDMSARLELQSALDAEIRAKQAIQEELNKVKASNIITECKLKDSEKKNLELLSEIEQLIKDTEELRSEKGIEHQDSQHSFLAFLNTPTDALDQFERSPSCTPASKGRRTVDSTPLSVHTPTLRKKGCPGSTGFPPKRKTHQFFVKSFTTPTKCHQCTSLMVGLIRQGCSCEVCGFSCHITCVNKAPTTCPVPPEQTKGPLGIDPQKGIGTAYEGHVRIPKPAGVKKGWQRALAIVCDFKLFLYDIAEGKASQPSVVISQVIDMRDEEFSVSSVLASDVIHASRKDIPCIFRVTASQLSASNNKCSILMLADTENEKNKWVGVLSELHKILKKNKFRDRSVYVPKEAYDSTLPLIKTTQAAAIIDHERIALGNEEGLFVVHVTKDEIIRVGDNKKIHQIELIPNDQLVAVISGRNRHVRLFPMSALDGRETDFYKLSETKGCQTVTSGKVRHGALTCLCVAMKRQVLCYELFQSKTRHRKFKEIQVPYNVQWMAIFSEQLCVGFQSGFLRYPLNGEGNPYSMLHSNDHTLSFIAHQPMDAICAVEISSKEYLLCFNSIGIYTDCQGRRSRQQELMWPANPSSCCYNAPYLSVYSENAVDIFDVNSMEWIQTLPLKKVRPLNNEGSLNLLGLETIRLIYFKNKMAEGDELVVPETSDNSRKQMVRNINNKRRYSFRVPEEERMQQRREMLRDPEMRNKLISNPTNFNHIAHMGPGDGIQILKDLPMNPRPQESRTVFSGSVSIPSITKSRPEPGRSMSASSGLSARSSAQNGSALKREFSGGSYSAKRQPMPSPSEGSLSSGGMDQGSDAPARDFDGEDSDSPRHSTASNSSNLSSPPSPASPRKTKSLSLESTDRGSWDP
Calcium/calmodulin-dependent protein kinase kinase 2 (Homo sapiens), sequence (Q96RR4 2-588 limits assumed): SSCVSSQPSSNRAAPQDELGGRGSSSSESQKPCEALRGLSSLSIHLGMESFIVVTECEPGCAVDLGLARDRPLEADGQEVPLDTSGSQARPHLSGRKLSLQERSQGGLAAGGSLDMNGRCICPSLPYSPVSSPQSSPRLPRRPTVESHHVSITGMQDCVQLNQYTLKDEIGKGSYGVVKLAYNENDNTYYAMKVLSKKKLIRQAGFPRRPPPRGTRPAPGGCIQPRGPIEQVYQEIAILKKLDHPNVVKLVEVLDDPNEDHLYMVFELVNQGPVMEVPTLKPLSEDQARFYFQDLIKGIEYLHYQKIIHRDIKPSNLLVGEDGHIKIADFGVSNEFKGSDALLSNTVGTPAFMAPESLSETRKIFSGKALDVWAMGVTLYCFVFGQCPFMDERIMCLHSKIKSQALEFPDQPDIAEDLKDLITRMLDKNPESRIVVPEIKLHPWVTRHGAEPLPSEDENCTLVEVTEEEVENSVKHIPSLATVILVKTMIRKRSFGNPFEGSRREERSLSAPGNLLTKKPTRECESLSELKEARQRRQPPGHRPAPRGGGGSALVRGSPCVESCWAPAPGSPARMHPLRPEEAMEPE

`O=C1c2ccc(Nc3ccc(F)cc3F)cc2CCc2ccc(OC[C@H](O)CO)cc21` [Skepinone-L]: the Activity in assay [1] was found to be 53%; in [2], 85%; in [3] it was 93%; in assay [4], 88%; in assay [5], 101%; in assay [6], 104%. Moreover, the Activity in assay [7] was found to be 106%; in [9], 83%; in assay [10], 74%; in [11] it was 114%; in assay [12] it was 100%; in assay [13], 93%. Further, the Activity stood at 98% in assay [14]; 97% in [15]; 101% in [16]; 93% in assay [17]; 100% in [18]; 100% in assay [19]. Besides, the IC50 result in assay [8] was “Not Active”.

The record behind these values is ChEMBL document CHEMBL5696441 (Nat Chem Biol, 2011).
